Measured values published in US11760775B2, “Steroids and protein-conjugates thereof” (Regeneron Pharmaceuticals, Inc., priority 2016, dated 2023).
Where two headings read alike, the source gives them in different places.

Key:
[1] = tested on: glucocorticoid receptor (GR) activation in HEK293/MMTV-luc/IL-2Rγ/IL7R cells; test: IL2Rγ-ncADC bioassay, MMTV luciferase reporter in HEK293/MMTV-luc/IL2Rγ/IL7R cells; assay type: cell-based, human
Description: (§1) HEK293 cell line was first generated to stably express a luciferase reporter pGL4.36[luc2P/MMTV/Hygro] (Promega, #E136A), referred to herein as HEK293/MMTV-luc, and maintained in DMEM containing 10% FBS, NEAA, penicillin/streptomycin/L-glutamine, and 100 μg/mL hygromycin (complete media). […] The resulting cell line referred to herein as, HEK293/MMTV-luc/IL-2Rγ/IL7R, was maintained in complete media supplemented with 1 μg/mL puromycin, and 500m/mL G418 sulfate.
(§2) For the bioassay, HEK293/MMTV-luc or HEK293/MMTV-luc/IL2Rγ/IL7R cells were seeded onto 96-well assay plates at 10,000 cells/well in complete media and incubated at 37° C. in 5% CO2 overnight. […] The concentrations were adjusted according to drug-to-antibody ratio for ncADCs and other techniques known to those of skill in the art. One well without any test article was also included as a control.
(§3) Luciferase activity was measured after 6, 24, 48, and 72 hours of incubation in 37° C. at 5% CO2 on a Victor X instrument (Perkin Elmer). The results were analyzed using nonlinear regression (4-parameter logistics) with Prism 6 software (GraphPad) to obtain EC50 values. Fold activation was calculated by determining the ratio of the luciferase activity of each sample to that observed without any test article added

[2] = tested on: GR activation in 293/MMTV-Luc cells; test: Luciferase reporter assay in 293/MMTV-Luc cells (do not express PRLR); assay type: cell-based, human; conditions: for GRE-Luc activation: 293/MMTV-Luc cells, 72 hours
Source text: In a second example, a bioassay assessed both the efficacy of free steroids as well as any nonspecific activity by anti-PRLR-ncADCs.

[3] = tested on: GR activation in 293/PRLR/GRE-Luc cells (HEK293/9xUAS-Luc2P/pBind-GR/PRLR-HA high cells); test: GR co-activator luciferase reporter cell based assay in 293/PRLR/GRE-Luc cells; design: species or system human
In short: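 EC50 was derived from a 10-point, four-parameter logistic fit of One-Glo luminescence. The reporter is driven by Gal4UAS through GR ligand-binding domain fused to Gal4 DBD in PRLR-expressing 293 cells, after ADC internalization or free steroid exposure. Activation below 10% of the free-payload maximum counts as minimal.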

[4] = tested on: glucocorticoid receptor (GR) activation in HEK293/MMTV-Luc cells; test: MMTV luciferase reporter bioassay in parental HEK293/MMTV-luc cells; assay type: cell-based, human; conditions: 72 hrs of incubation
Description: as §1, §2, §3

[5] = tested on: GR activation in 293/GRE-Luc cells (293_PBind GR/UAS-Luc); test: Luciferase reporter assay in antigen negative 293/GRE-Luc cells; assay type: cell-based, human; conditions: read-out: EC50 in 293/GRE-Luc; 72 hrs of incubation; antigen negative cells
[6] = 6, 24, and 48 hours of incubation
[7] = 293/PRLR/GRE-Luc cells, 72 hours

Compound: CCCC1O[C@@H]2C[C@H]3[C@@H]4CCC5=CC(=O)C=C[C@]5(C)[C@H]4[C@@H](O)C[C@]3(C)[C@]2(C(=O)COc2ccc(N)cc2)O1 (stereo in doubt) [Compound 11-5]
- GR activation [1, 6]: partial activation
- Fold Activation ([1]; 6 hours): Partial
- Fold Activation ([1]; 24 hours): Partial
- Maximum fold activation ([1]; 24 hrs of incubation): relatively lower levels of activation compared to budesonide
- Fold Activation ([1]; 48 hours): Partial
- Fold Activation ([1]; 72 hours): Full
- GR activation ([1]; 72 hours of incubation): full activations
- EC50 ([1]; Homo sapiens, HEK293, 6 h): > 100 nM
- EC50 ([1]; Homo sapiens, HEK293, 24 h): > 100 nM
- EC50 ([1]; Homo sapiens, HEK293, 48 h): 10 to 100 nM
- EC50 ([1]; Homo sapiens, HEK293, read-out: EC50 of GR activation): 10 to 100 nM
- EC50 potency class ([1]; at 24 hours): + (+: >100 nM)
- EC50 potency class ([1]; at 48 hours): ++ (++: 10-100 nM)
- GRE-Luc activation [2]: full GRE-Luc activation
- EC50 ([2]; Homo sapiens, 72 h, read-out: EC50 of GRE-Luc activation): 10 to 100 nM
- Fold Activation [3, 7]: Full
- GRE-Luc activation [3, 7]: full GRE-Luc activation
- EC50 ([3]; Homo sapiens, HEK293, 72 h, read-out: EC50 of GRE-Luc activation): < 10 nM
- Activation in HEK293/MMTV-Luc cells [4]: showed activation

Compound: CCCC1O[C@@H]2C[C@H]3[C@@H]4CCC5=CC(=O)C=C[C@]5(C)[C@H]4[C@@H](O)C[C@]3(C)[C@]2(C(=O)CO)O1 (stereo partly shown) [Budesonide, budesonide, reference compound]
- GRE-Luc activation [2]: full GRE-Luc activation
- GRE-Luc activation [3, 7]: full GRE-Luc activation
- EC50 ([3]; 293/PRLR/GRE-Luc cells, 72 hours, read-out: EC50): < 10 nM
- EC50 ([3]; 293/PRLR/GRE-Luc cells, 72 hours, read-out: EC50 of GRE-Luc activation): < 10 nM
- EC50 ([3]; 72 hours of incubation, read-out: HEK293/9xUAS-Luc2P/pBind-GR/PRLR-HA high cells EC50): < 10 nM
- EC50 ([3]; read-out: EC50 in 293/PRLR/GRE-Luc, 72 hrs of incubation): 5 to 10 nM
- EC50 ([3]; read-out: HEK293/9xUAS-Luc2P/pBind-GR/PRLR-HA high cells EC50): < 10 nM
- EC50 [5]: < 5 nM
- Activation in HEK293/MMTV-Luc cells [4]: showed activation
